Literature values, collected in patent publication US20090137633A1, “Stable pharmaceutical composition of rabeprazole” (priority 2003, published 2009).
Where a name gives a salt, the structure may show the parent alone.

Assays:
[1] = target: T1, gastric H^+ K^+ ATPase enzyme system (proton pump) (Homo sapiens, UniProt P20648); settings: in vivo
T1 construct: at the secretory surface of the gastric parietal cell; host or cells: gastric parietal cell (in vivo)
T1 sequence (P20648 whole entry): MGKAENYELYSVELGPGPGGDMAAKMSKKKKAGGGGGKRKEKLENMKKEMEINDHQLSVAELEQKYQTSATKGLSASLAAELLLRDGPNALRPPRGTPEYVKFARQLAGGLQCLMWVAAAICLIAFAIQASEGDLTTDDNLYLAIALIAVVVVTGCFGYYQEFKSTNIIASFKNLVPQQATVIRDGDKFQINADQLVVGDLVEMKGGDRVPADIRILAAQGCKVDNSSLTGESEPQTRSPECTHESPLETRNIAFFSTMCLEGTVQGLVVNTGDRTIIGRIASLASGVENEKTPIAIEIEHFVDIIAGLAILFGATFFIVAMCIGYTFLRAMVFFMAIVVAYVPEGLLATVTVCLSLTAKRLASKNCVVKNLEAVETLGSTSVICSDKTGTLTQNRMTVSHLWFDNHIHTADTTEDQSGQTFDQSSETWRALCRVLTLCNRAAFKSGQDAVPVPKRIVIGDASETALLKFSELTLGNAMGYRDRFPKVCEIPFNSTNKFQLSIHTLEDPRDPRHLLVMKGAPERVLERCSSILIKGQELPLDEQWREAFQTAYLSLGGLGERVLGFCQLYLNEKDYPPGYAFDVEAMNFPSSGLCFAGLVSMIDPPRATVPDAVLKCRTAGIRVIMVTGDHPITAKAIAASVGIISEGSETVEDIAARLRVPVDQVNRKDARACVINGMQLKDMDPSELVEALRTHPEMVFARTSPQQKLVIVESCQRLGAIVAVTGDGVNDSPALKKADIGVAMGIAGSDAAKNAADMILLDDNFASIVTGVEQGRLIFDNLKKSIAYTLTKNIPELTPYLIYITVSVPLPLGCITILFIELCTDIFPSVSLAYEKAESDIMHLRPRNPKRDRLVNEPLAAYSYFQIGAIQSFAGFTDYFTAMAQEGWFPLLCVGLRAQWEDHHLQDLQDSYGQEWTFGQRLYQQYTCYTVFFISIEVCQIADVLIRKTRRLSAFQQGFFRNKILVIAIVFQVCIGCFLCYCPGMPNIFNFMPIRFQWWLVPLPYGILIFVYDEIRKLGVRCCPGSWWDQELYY
T1 sequence (P51164 whole entry partner): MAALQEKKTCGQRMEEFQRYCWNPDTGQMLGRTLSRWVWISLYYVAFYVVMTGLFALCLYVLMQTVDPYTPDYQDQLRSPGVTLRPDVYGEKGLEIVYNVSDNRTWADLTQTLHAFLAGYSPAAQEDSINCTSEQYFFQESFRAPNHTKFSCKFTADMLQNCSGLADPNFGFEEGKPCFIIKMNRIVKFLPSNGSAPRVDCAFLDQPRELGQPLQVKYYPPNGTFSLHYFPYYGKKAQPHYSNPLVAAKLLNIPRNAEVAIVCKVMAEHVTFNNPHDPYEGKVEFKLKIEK

oral bioavalability: about 50%
effect on intragastric pH in relation to cytochrome P450 2C19 genotype [1]: unaffected
Compound: COCCCOc1ccnc(C[S+]([O-])c2nc3ccccc3[nH]2)c1C (centres unmarked) [rabeprazole, 2-{[[4-(3-methoxypropoxy)-3-methyl]-2-pyridinyl]sulfinyl}-1H-benzimidazole sodium salt]
